According to patent US8962628B2, “Herbicidal 5H-quinoxaline-6-one derivatives detailed description” (Syngenta Limited, priority 2010, dated 2015):

Tests used:
Type in all cases: in vivo
Ipomea hederaceae [1] = experiment: Herbicidal action post-emergence (Example B1); conditions: post-emergence spray, rate 1000 g/ha, evaluated after 13 days; 10=total damage to plant, 0=no damage to plant
Experimental: (§1) Seeds of a variety of test species were sown in standard soil in pots. After 8 days cultivation (post-emergence) under controlled conditions in a glasshouse (at 24/16° C., day/night; 14 hours light; 65% humidity), the plants were sprayed with an aqueous spray solution derived from the formulation of the technical active ingredient in acetone/water (50:50) solution containing 0.5% Tween 20 (polyoxyethelyene sorbitan monolaurate, CAS RN 9005-64-5). The test plants were then grown under controlled conditions in a glasshouse (at 24/16° C., day/night; 14 hours light; 65% humidity) and watered twice daily. After 13 days, the test was evaluated (10=total damage to plant; 0=no damage to plant).

Echinochloa crus-galli [2] = experiment: Herbicidal action post-emergence (Example B1); conditions: post-emergence spray, rate 1000 g/ha, evaluated after 13 days; 10=total damage to plant, 0=no damage to plant
Experimental: as §1

Amaranthus retroflexus [3] = experiment: Herbicidal action post-emergence (Example B1); conditions: post-emergence spray, rate 1000 g/ha, evaluated after 13 days; 10=total damage to plant, 0=no damage to plant
Experimental: as §1

Setaria faberi [4] = experiment: Herbicidal action post-emergence (Example B1); conditions: post-emergence spray, rate 1000 g/ha, evaluated after 13 days; 10=total damage to plant, 0=no damage to plant
Experimental: as §1

Solanum nigrum = experiment: Herbicidal action post-emergence (Example B1); conditions: post-emergence spray, rate 1000 g/ha, evaluated after 13 days; 10=total damage to plant, 0=no damage to plant
Experimental: as §1

Ipomea hederaceae [5] = experiment: Herbicidal action post-emergence (Example B2); conditions: post-emergence spray with adjuvant X-77, rate 500 g/ha, evaluated after 15 days; 10=total damage to plant, 0=no damage to plant
Experimental: (§2) Seeds of crop and representative weed species were sown in standard soil in pots. After cultivation for 14 days under controlled conditions in a glasshouse (at 22/16° C., day/night; 16 hours light; 65% humidity), the plants were sprayed. The spray solution was prepared by dissolving the technical active ingredient in acetone containing 10.56 wt % Emulsogen EL, 42.22 wt % N-methylpyrrolidone and 2.22 wt % DPG-monoethyl ether to give a 5% stock solution. This was then diluted with water containing 0.2% (v/v) of the adjuvant X-77 to give the desired treatment concentration.
(§3) The test plants were then grown on under controlled conditions in a glasshouse (at 22/16° C., day/night; 16 hours light; 65% humidity) and watered twice daily. After 15 days the test was evaluated (10=total damage to plant; 0=no damage to plant).

Echinochloa crus-galli [6] = experiment: Herbicidal action post-emergence (Example B2); conditions: post-emergence spray with adjuvant X-77, rate 500 g/ha, evaluated after 15 days; 10=total damage to plant, 0=no damage to plant
Experimental: as §2, §3

Amaranthus retroflexus [7] = experiment: Herbicidal action post-emergence (Example B2); conditions: post-emergence spray with adjuvant X-77, rate 500 g/ha, evaluated after 15 days; 10=total damage to plant, 0=no damage to plant
Experimental: as §2, §3

Setaria faberi [8] = experiment: Herbicidal action post-emergence (Example B2); conditions: post-emergence spray with adjuvant X-77, rate 500 g/ha, evaluated after 15 days; 10=total damage to plant, 0=no damage to plant
Experimental: as §2, §3

Row | Compound | IPOHE damage to plant (score 0-10) (Ipomea hederaceae [1]) | ECHCG damage to plant (score 0-10) (Echinochloa crus-galli [2]) | AMARE damage to plant (score 0-10) (Amaranthus retroflexus [3]) | SETFA damage to plant (score 0-10) (Setaria faberi [4]) | SOLNI damage to plant (score 0-10) (Solanum nigrum) | IPOHE damage to plant (score 0-10) (Ipomea hederaceae [5]) | ECHCG damage to plant (score 0-10) (Echinochloa crus-galli [6]) | AMARE damage to plant (score 0-10) (Amaranthus retroflexus [7]) | SETFA damage to plant (score 0-10) (Setaria faberi [8])
1 | CC1(C)C(=O)C(c2ccccc2C(F)(F)F)C(=O)c2nccnc21 (stereo not shown) [Compound E1, 8,8-dimethyl-6-(2-trifluoromethyl-phenyl)-8H-quinoxaline-5,7-dione] | 9 | 9 | 10 | 9 | 10 | 8 | 3 | 10 | 7
2 | CC(C)C(=O)OC1=C(c2ccccc2C(F)(F)F)C(=O)C(C)(C)c2nccnc21 [Compound F1, isobutyric acid 8,8-dimethyl-7-oxo-6-(2-trifluoromethyl-phenyl)-7,8-dihydro-quinoxalin-5-yl ester] | – | – | – | – | – | 8 | 8 | 10 | 8
